Reference: ChEMBL document CHEMBL1145900, “Histone deacetylase inhibitors” (J Med Chem, 2003)
pIC50: −log10 of the molar value. Converted amounts (≈) assume the structure as drawn.

Molecular target: Histone deacetylase
Experiment: not given
Type: protein assay, Homo sapiens
Conditions: not given

First: O=C(/C=C/CCCCOc1ccc(-c2ccccc2)cc1)C(F)(F)F
Second: O=C(CCCCCCC(=O)C(F)(F)F)Nc1cccc(-c2ccccc2)c1
The IC50 of the first is 13-fold higher: 5000 nM for the first, 380 nM for the second.

First: O=C(CCCCCCNC(=O)c1ccccn1)NO
Second: O=C(CCCCCCNC(=O)c1ccccc1)NO
The IC50 of the first is 1.7-fold higher: 1680 nM for the first, 1006 nM for the second.

`COc1ccc2oc(C(=O)NCCCCCCC(=O)NO)cc2c1` and `O=C(CCCCCCNC(=O)c1cc2cc(Cl)ccc2o1)NO` are the same in IC50: 15 nM for the first, 15 nM for the second.

First: O=C(CCCCCCNC(=O)c1cc2cc(F)ccc2[nH]1)NO
Second: O=C(CCCCCCNC(=O)c1cc2cc(Br)ccc2[nH]1)NO
The IC50 of the first is 1.5-fold higher: 5.4 nM for the first, 3.5 nM for the second.

First: O=C(CCCCCCNC(=O)c1cccc2cc[nH]c12)NO
Second: O=C(CCCCCCNC(=O)c1cccc2[nH]ccc12)NO
The IC50 of the first is 2-fold lower: 41 nM for the first, 80.3 nM for the second.

Going from `CC1c2ccccc2CC1C(=O)NCCCCCCC(=O)NO` (stereo unspecified) to `O=C(CCCCCCNC(=O)C1Cc2ccccc2O1)NO` (stereo unspecified), the IC50 falls from 732 nM to 29.6 nM (25-fold).

Going from `O=C(CCCCCCNC(=O)c1ccc2cc[nH]c2c1)NO` to `O=C(CCCCCCNC(=O)c1ccc2[nH]ccc2c1)NO`, the IC50 falls from 56.5 nM to 31.4 nM (1.8-fold).

`COc1cc(OC)c2cc(C(=O)NCCCCCCC(=O)NO)[nH]c2c1` and `COc1cccc2[nH]c(C(=O)NCCCCCCC(=O)NO)cc12` are the same in IC50: 3.1 nM for the first, 3.1 nM for the second.

Going from `O=C(CCCCCCNC(=O)c1c[nH]c2ccccc12)NO` to `O=C(CCCCCCNC(=O)c1cc2ccccc2[nH]1)NO`, the IC50 falls from 37.5 nM to 14.6 nM (2.6-fold).

Compared with `O=C(CCCCCCNC(=O)c1ccc[nH]1)NO`, `COc1ccc2[nH]c(C(=O)NCCCCCCC(=O)NO)cc2c1` is 81-fold lower in IC50: 524 nM for the first, 6.5 nM for the second.

Molecular target: Histone deacetylase
Experiment: Inhibitory concentration against isolated Histone deacetylase
Type: protein assay, Homo sapiens
Conditions: not given

Going from `Cn1cc(C(=O)c2ccccc2)cc1/C=C/C#N` to `Cn1cc(C(=O)c2ccccc2)cc1/C=C/C(=N)N`, the IC50 falls from 70000 nM to 23000 nM (3-fold).

Compared with `CCOC(=O)NCCSSCCNC(=O)/C(Cc1ccc(O)c(Br)c1)=N/O`, `COC(=O)NCCSSCCNC(=O)/C(Cc1ccc(O)c(Br)c1)=N/O` [PSAMMAPLIN D] is 1.8-fold lower in IC50: 79 nM for the first, 44 nM for the second.

Going from `O=C(NCCSSCCNC(=O)/C(Cc1ccc(O)c(Br)c1)=N/O)/C(Cc1ccc(O)c(Br)c1)=N/O` [PSAMMAPLIN A] to `O=C(O)C(=O)NCCSSCCNC(=O)/C(Cc1ccc(O)c(Br)c1)=N/O`, the IC50 falls from 4 nM to 2 nM (2-fold).

`Cn1cc(C(=O)Cc2ccccc2)cc1C=C1C(=O)NC(=S)NC1=O` and `Cn1cc(C(=O)Cc2ccccc2)cc1C=C1C(=O)NC(=O)NC1=O` are within 1.5-fold of each other in IC50: 85000 nM for the first, 104000 nM for the second.

With `NC(=O)C(=O)NCCSSCCNC(=O)/C(Cc1ccc(O)c(Br)c1)=N/O` [PSAMMAPLIN E] the IC50 was 330 nM.

Test system: Plasmodium falciparum
Experiment: Inhibitory concentration against Plasmodium falciparum […]
Type: functional, organism-based
Conditions: not given

Going from `CC[C@H](C)[C@@H]1NC(=O)[C@H](Cc2cn(OC)c3ccccc23)NC(=O)[C@H](CCCCCC(=O)NO)NC(=O)[C@H]2CCCCN2C1=O` to `CC[C@H](C)[C@@H]1NC(=O)[C@H](Cc2cn(OC)c3ccccc23)NC(=O)[C@H](CCCCCC(=O)O)NC(=O)[C@H]2CCCCN2C1=O`, the IC50 rises from 0.00024 µg/mL (≈ 0.000383 µM) to > 1 µg/mL.

Compared with `CCC(=O)C(F)CCCC[C@@H]1NC(=O)[C@H]2CCCCN2C(=O)[C@H]([C@@H](C)CC)NC(=O)[C@H](Cc2cn(OC)c3ccccc23)NC1=O` (stereo partly specified), `CC[C@H](C)[C@@H]1NC(=O)[C@H](Cc2cn(OC)c3ccccc23)NC(=O)[C@H](CCCCCC(=O)C(C)F)NC(=O)[C@H]2CCCCN2C1=O` (stereo partly specified) is 25-fold lower in IC50: 0.7 µg/mL (≈ 1.09 µM) for the first, 0.028 µg/mL (≈ 0.0436 µM) for the second.

First: CC[C@H](C)[C@@H]1NC(=O)[C@H](Cc2cn(OC)c3ccccc23)NC(=O)[C@H](CCCCCC(=O)C(C)O)NC(=O)[C@H]2CCCCN2C1=O (stereo partly specified)
Second: CC[C@H](C)[C@@H]1NC(=O)[C@H](Cc2cn(OC)c3ccccc23)NC(=O)[C@H](CCCCCC(=O)OC)NC(=O)[C@H]2CCCCN2C1=O
The IC50 of the first is 9.5-fold lower: 0.022 µg/mL (≈ 0.0344 µM) for the first, 0.21 µg/mL (≈ 0.336 µM) for the second.

First: CC[C@H](C)[C@@H]1NC(=O)[C@H](Cc2cn(OC)c3ccccc23)NC(=O)[C@H](CCCCC(=O)OC)NC(=O)[C@H]2CCCCN2C1=O
Second: CC[C@H](C)[C@@H]1NC(=O)[C@H](Cc2cn(OC)c3ccccc23)NC(=O)[C@H](CCCCCCC(=O)OC)NC(=O)[C@H]2CCCCN2C1=O
The IC50 of the first is higher: > 1 µg/mL for the first, 0.5 µg/mL (≈ 0.782 µM) for the second.

For `CC[C@H](C)[C@@H]1NC(=O)[C@H](Cc2cn(OC)c3ccccc23)NC(=O)[C@H](CCCCCC(=O)C2CO2)NC(=O)[C@H]2CCCCN2C1=O` (stereo partly specified), the IC50 was < 0.015 µg/mL.

Molecular target: Histone deacetylase
Experiment: Inhibitory concentration against human Histone deacetylase in Hela cells
Type: cell-based
Conditions: not given

Compared with `CC[C@H](C)[C@@H]1NC(=O)[C@H](Cc2cn(OC)c3ccccc23)NC(=O)[C@H](CCCCCC(=O)NO)NC(=O)[C@H]2CCCCN2C1=O`, `CC[C@H](C)[C@@H]1NC(=O)[C@H](Cc2cn(OC)c3ccccc23)NC(=O)[C@H](CCCCCC(=O)O)NC(=O)[C@H]2CCCCN2C1=O` is 75-fold higher in IC50: 0.2 nM for the first, 15 nM for the second.

Going from `CCC(=O)C(F)CCCC[C@@H]1NC(=O)[C@H]2CCCCN2C(=O)[C@H]([C@@H](C)CC)NC(=O)[C@H](Cc2cn(OC)c3ccccc23)NC1=O` (stereo partly specified) to `CC[C@H](C)[C@@H]1NC(=O)[C@H](Cc2cn(OC)c3ccccc23)NC(=O)[C@H](CCCCCC(=O)C(C)F)NC(=O)[C@H]2CCCCN2C1=O` (stereo partly specified), the IC50 falls from 110 nM to 1 nM (110-fold).

`CC[C@H](C)[C@@H]1NC(=O)[C@H](Cc2cn(OC)c3ccccc23)NC(=O)[C@H](CCCCCC(=O)C(C)O)NC(=O)[C@H]2CCCCN2C1=O` (stereo partly specified) and `CC[C@H](C)[C@@H]1NC(=O)[C@H](Cc2cn(OC)c3ccccc23)NC(=O)[C@H](CCCCCC(=O)OC)NC(=O)[C@H]2CCCCN2C1=O` are within 1.5-fold of each other in IC50: 0.3 nM for the first, 0.4 nM for the second.

Compared with `CC[C@H](C)[C@@H]1NC(=O)[C@H](Cc2cn(OC)c3ccccc23)NC(=O)[C@H](CCCCC(=O)OC)NC(=O)[C@H]2CCCCN2C1=O`, `CC[C@H](C)[C@@H]1NC(=O)[C@H](Cc2cn(OC)c3ccccc23)NC(=O)[C@H](CCCCCCC(=O)OC)NC(=O)[C@H]2CCCCN2C1=O` is 11-fold lower in IC50: 74 nM for the first, 7 nM for the second.

For `CC[C@H](C)[C@@H]1NC(=O)[C@H](Cc2cn(OC)c3ccccc23)NC(=O)[C@H](CCCCCC(=O)C2CO2)NC(=O)[C@H]2CCCCN2C1=O` (stereo partly specified), the IC50 was < 0.1 nM.

Test system: MDA-MB-435
Experiment: cells
Type: functional, cell-based
Conditions: Homo sapiens
Description: Inhibitory concentration against MDA-435 cells proliferation

Compared with `O=C(CCCCCNC(=O)[C@H](Cc1ccccc1)N1C(=O)CCC1=O)NO`, `CC(C)C[C@@H]1CC(=O)N([C@@H](Cc2ccccc2)C(=O)NCCCCCC(=O)NO)C1=O` is 1.17 log units higher in pIC50: 5.00 for the first, 6.17 for the second.

First: CCC[C@H]1C(=O)N([C@@H](Cc2ccccc2)C(=O)NCCCCCC(=O)NO)C(=O)[C@@H]1CC(C)C
Second: CCC[C@H]1C(=O)N([C@@H](Cc2ccc(OC)cc2)C(=O)NCCCCCC(=O)NO)C(=O)[C@@H]1CC(C)C
The pIC50 of the first is 0.50 log units lower: 6.24 for the first, 6.74 for the second.

Compared with `O=C(CCCCCCNC(=O)c1cc2ccccc2[nH]1)NO`, `O=C(CCCCCCNC(=O)C1Cc2ccccc2O1)NO` (stereo unspecified) is 0.51 log units lower in pIC50: 6.82 for the first, 6.31 for the second.

Molecular target: Histone deacetylase
Experiment: not given
Type: protein assay, Homo sapiens
Conditions: not given
Remark: another data set of the same source

Compared with `Cn1cc(C(=O)c2ccc(Cl)cc2)cc1/C=C/C(=O)NO`, `Cn1cc(C(=O)c2ccc(F)cc2)cc1/C=C/C(=O)NO` is 1.6-fold higher in IC50: 2.4 µM for the first, 3.8 µM for the second.

Compared with `Cn1cc(C(=O)/C=C/c2ccccc2)cc1/C=C/C(=O)NO`, `Cn1cc(C(=O)c2ccccc2)cc1/C=C/C(=O)NO` is 3.8-fold higher in IC50: 1 µM for the first, 3.8 µM for the second.

Compared with `O=C(NO)c1ccc(CNC(=O)c2ccc3ccccc3c2)cc1`, `O=C(NO)c1ccc(CNC(=O)c2cccc3ccccc23)cc1` is 19-fold higher in IC50: 0.044 µM for the first, 0.83 µM for the second.

First: Cn1cc(C(=O)c2ccc([N+](=O)[O-])cc2)cc1/C=C/C(=O)NO
Second: Cc1ccc(C(=O)c2cc(/C=C/C(=O)NO)n(C)c2)cc1
The IC50 of the first is 2.1-fold higher: 3.9 µM for the first, 1.9 µM for the second.

Compared with `O=C(/C=C/c1cc(C(=O)c2ccccc2)c[nH]1)NO`, `CC(C)n1cc(C(=O)c2ccccc2)cc1/C=C/C(=O)NO` is 11-fold higher in IC50: 5 µM for the first, 53 µM for the second.

`O=C(NO)c1ccc(CNC(=O)c2ccc(-c3ccccc3)cc2)cc1` and `O=C(NCC1CCC(C(=O)NO)CC1)c1ccc(-c2ccccc2)cc1` (stereo unspecified) are within 1.5-fold of each other in IC50: 0.24 µM for the first, 0.31 µM for the second.

First: O=C(/C=C/c1cc(C(=O)c2ccccc2)cn1-c1ccccc1)NO
Second: COc1ccc(C(=O)c2cc(/C=C/C(=O)NO)n(C)c2)cc1
The IC50 of the first is 38-fold higher: 110 µM for the first, 2.9 µM for the second.

Going from `CN(C)c1ccc(C(=O)c2cc(/C=C/C(=O)NO)n(C)c2)cc1` to `Cn1cc(C(=O)c2ccccc2)cc1CCC(=O)NO`, the IC50 rises from 2.4 µM to 36.8 µM (15-fold).

Molecular target: Histone deacetylase
Experiment: not given
Parameters: species or system Rattus norvegicus
Conditions: not given
Remark: another data set of the same source

Compared with `CC(C)C[C@H]1C(=O)N[C@H](C(=O)NCCCCCC(=O)NO)Cc2ccc(cc2)OCCCC[C@H]1C(=O)OC(C)(C)C`, `CN(C)c1ccc(C(=O)NCCCCCCC(=O)NO)cc1` is 46-fold lower in IC50: 2100 nM for the first, 46 nM for the second.

`O=C(CCCCCCC(=O)c1ccccc1)NO` and `O=C(CCCCCNC(=O)c1ccc(-c2ccccc2)cc1)NO` are within 1.5-fold of each other in IC50: 270 nM for the first, 265 nM for the second.

First: CN(C)c1ccc(C(=O)NCCCCCCCC(=O)NO)cc1
Second: CN(C)c1ccc(C(=O)NCCCCCC(=O)NO)cc1
The IC50 of the first is 1.7-fold lower: 145 nM for the first, 244 nM for the second.

Going from `O=C(CCCCCNC(=O)c1ccc(Cl)cc1)NO` to `O=C(CCCCCNC(=O)c1ccc([N+](=O)[O-])cc1)NO`, the IC50 rises from 369 nM to 1566 nM (4.2-fold).

Compound `O=C(CCCCCN1C(=O)c2ccccc2C1=O)NO` has an IC50 of 515 nM.

For `CN(C)c1ccc(C(=O)NCCCCC(=O)NO)cc1`, the IC50 was > 10000 nM.

Test system: HT-1080
Experiment: cells
Type: functional, cell-based
Conditions: Homo sapiens
Description: Inhibitory concentration against HT1080 cells proliferation

Going from `O=C(CCCCCCNC(=O)c1cc2ccccc2[nH]1)NO` to `O=C(CCCCCCNC(=O)C1Cc2ccccc2O1)NO` (stereo unspecified), the pIC50 falls from 6.85 to 6.12 (0.73 log units).
